Data taken from patent publication US20140120083A1, “TREATMENT OF CANCERS USING PI3 KINASE ISOFORM MODULATORS” (INFINITY PHARMACEUTICALS, INC., priority 2012, published 2014).

Tests used:
Type in all cases: biochemical
PI3K γ = molecular target: T1, PI3K γ (Homo sapiens, UniProt P48736); assay: In vitro IC50, PI3K γ
T1 construct: purchased Sigma
Excerpt: (§1) An exemplary system is PI 3-Kinase (human) HTRF™ Assay from Upstate.

PI3K α = molecular target: T2, PI3K α (Homo sapiens, UniProt P42336); assay: In vitro IC50, PI3K α
T2 construct: purchased Upstate
T2 sequence (P42336 whole entry): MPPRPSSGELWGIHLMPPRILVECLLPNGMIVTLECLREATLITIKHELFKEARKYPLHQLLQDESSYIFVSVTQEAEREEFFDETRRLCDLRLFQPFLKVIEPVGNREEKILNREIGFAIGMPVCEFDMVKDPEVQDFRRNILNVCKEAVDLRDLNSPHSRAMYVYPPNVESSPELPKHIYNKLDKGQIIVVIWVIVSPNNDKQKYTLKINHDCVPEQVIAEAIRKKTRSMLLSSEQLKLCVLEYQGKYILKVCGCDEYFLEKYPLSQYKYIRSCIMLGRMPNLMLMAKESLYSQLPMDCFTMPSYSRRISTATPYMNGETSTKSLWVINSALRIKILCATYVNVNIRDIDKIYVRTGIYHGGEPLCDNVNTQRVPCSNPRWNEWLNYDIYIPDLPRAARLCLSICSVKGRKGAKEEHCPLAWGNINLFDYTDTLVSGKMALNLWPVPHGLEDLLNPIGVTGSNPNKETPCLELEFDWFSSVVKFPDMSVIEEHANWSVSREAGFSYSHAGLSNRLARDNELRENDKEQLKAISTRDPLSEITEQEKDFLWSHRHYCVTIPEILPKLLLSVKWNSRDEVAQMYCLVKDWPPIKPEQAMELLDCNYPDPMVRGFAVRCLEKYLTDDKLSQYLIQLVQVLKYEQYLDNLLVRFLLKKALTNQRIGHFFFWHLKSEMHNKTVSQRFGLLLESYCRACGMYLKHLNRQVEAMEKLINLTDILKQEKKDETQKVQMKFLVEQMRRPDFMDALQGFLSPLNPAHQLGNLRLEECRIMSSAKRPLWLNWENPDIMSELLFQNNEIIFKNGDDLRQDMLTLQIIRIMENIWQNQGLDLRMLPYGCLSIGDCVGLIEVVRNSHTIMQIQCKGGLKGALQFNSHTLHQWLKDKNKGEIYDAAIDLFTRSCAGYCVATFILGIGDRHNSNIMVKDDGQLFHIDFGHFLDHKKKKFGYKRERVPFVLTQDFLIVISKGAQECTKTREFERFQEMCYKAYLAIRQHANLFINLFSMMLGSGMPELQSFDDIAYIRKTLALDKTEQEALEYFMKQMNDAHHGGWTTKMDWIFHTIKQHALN
T2 sequence (P27986 whole entry partner): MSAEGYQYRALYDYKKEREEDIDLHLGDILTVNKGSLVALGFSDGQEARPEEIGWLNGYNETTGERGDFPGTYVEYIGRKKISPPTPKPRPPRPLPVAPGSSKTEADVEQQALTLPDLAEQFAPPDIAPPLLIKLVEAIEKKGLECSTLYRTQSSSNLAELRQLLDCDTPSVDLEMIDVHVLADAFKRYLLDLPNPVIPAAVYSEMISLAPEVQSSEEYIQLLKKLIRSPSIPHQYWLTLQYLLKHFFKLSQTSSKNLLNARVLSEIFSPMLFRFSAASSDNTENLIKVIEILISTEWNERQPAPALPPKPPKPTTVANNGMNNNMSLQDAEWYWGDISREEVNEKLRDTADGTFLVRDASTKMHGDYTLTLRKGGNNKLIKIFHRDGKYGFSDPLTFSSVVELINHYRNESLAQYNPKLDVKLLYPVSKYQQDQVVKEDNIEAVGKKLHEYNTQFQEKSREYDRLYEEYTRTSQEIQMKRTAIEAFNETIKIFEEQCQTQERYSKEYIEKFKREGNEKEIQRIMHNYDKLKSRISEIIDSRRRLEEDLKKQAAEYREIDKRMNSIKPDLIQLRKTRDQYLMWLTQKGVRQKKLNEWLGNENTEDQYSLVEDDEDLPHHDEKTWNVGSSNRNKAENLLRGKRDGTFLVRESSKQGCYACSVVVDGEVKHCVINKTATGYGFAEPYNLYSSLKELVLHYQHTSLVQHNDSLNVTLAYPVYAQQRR
Excerpt: as §1

PI3K β = PI3K β (Homo sapiens, UniProt P42338); assay: In vitro IC50, PI3K β
Chain of PI3K β (P42338 whole entry): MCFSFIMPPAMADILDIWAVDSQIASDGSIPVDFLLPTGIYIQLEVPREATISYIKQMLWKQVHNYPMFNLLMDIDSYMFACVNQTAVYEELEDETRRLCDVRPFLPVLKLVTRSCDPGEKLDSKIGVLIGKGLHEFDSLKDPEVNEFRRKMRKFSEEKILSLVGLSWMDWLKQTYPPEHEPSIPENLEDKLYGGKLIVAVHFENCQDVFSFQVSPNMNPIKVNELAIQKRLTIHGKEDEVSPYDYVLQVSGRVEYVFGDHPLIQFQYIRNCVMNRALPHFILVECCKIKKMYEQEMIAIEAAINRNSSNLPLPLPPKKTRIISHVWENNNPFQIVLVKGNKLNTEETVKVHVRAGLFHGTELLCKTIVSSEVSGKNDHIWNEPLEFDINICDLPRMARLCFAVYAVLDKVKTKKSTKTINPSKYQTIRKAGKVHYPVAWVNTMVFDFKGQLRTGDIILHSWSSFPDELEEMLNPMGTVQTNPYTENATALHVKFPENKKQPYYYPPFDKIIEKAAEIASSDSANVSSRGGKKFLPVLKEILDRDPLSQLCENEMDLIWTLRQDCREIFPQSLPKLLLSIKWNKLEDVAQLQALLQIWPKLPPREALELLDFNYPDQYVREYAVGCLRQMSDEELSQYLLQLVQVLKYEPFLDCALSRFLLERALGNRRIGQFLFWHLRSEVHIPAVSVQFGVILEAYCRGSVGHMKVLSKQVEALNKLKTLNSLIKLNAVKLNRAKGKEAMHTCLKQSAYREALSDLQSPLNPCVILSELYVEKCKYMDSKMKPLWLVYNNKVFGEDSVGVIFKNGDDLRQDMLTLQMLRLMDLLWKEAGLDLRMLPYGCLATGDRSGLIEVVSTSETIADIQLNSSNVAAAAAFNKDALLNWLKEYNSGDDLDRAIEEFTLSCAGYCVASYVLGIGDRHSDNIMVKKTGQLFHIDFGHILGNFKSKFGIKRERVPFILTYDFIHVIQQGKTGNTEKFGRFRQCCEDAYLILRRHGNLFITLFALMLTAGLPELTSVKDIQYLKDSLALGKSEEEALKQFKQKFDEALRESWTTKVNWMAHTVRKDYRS
Excerpt: as §1

PI3K δ = PI3K δ (Homo sapiens, UniProt O00329); assay: In vitro IC50, PI3K δ; design: purchased Upstate
Chain of PI3K δ (O00329 whole entry): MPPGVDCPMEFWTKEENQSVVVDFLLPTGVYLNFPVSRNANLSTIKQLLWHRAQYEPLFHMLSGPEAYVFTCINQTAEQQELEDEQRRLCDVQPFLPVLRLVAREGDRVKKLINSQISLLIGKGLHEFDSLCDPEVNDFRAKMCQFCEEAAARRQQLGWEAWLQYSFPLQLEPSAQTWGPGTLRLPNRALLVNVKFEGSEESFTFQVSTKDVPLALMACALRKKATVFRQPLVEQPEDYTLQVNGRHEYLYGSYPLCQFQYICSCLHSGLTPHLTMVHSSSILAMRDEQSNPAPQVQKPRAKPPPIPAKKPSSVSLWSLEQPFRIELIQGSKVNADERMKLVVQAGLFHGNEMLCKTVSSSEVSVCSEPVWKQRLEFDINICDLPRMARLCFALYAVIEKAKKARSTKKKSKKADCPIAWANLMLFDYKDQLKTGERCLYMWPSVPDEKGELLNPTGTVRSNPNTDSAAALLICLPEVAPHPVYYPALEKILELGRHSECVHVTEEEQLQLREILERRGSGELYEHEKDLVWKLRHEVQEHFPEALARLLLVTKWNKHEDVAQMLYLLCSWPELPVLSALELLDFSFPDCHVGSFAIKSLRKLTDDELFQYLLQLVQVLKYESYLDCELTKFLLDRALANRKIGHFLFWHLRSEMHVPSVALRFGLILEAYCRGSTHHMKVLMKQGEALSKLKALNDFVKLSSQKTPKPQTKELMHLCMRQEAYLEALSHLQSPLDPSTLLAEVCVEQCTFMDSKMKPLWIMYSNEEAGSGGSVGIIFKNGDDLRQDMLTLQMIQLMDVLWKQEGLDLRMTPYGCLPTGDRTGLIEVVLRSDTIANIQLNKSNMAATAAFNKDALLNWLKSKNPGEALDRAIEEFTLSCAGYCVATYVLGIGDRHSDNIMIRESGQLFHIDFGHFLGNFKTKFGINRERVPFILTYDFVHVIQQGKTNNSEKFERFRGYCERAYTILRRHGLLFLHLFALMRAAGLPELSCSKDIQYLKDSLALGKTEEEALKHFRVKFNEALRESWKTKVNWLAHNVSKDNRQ
Chain of PI3K δ (P27986 whole entry partner): as the sequence (P27986 whole entry partner) above
Excerpt: as §1

T1 sequence (P48736 whole entry): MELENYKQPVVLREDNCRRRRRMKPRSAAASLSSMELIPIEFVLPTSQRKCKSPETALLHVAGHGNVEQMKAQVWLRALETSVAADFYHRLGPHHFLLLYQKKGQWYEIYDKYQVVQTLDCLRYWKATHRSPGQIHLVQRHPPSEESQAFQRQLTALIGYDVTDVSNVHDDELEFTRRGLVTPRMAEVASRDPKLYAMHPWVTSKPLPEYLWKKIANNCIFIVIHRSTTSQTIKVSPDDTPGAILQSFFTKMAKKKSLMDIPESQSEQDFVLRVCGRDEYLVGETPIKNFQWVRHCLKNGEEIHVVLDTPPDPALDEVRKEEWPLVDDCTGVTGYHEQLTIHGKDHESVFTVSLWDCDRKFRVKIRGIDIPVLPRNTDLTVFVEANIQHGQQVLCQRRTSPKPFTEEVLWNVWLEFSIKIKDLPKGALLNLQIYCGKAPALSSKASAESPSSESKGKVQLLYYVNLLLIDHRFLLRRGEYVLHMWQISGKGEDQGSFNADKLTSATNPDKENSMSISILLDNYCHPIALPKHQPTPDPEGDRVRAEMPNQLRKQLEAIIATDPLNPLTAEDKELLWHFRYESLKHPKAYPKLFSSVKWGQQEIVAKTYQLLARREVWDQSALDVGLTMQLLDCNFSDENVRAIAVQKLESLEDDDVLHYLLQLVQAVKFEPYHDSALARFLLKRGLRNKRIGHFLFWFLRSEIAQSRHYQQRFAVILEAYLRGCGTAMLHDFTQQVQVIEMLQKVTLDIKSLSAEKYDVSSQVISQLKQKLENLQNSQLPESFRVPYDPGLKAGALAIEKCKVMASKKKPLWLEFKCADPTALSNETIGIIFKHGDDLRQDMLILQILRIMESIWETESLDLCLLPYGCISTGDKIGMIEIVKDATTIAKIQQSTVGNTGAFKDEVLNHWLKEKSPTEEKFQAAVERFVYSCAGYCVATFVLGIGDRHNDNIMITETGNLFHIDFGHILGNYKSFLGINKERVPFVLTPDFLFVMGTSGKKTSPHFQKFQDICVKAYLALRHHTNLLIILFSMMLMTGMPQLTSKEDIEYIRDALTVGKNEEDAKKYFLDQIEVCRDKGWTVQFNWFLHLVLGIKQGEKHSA

Row | IC50 (PI3K γ) [nM] | IC50 (PI3K α) [nM] | IC50 (PI3K β) [nM] | IC50 (PI3K δ) [nM] | SMILES
1 | > 10000 | > 10000 | < 10000 | < 1000 | CCC(Nc1ncnc2[nH]cnc12)c1cc2cccc(C)c2c(=O)n1C1CCN(C)CC1 (stereo not shown) [Compound 228]
2 | < 100 | < 1000 | < 100 | < 100 | Cc1cccc2cc([C@H](C)Nc3ncnc4[nH]cc(C(N)=O)c34)n(C3CC3)c(=O)c12 [Compound 287]
3 | < 100 | < 10000 | < 1000 | < 100 | Cc1cccc2cc(Cn3nc(-c4cn[nH]c4)c4c(N)ncnc43)n(-c3ccccc3C(C)C)c(=O)c12 [Compound 185]
4 | < 1000 | > 10000 | > 10000 | < 100 | Cc1cccc(C)c1-n1c(CNc2ncnc3[nH]cnc23)cc2cccc(C)c2c1=O [Compound 218]
5 | < 100 | > 10000 | > 10000 | < 100 | Cc1cccc2cc(Cn3nc(I)c4c(N)ncnc43)n(-c3ccccc3O)c(=O)c12 [Compound 79]
6 | < 100 | < 10000 | < 1000 | < 100 | Cc1cccc2cc(C(C)Nc3ncnc4[nH]cnc34)n(C3CC3)c(=O)c12 (stereo not shown) [Compound 204]
7 | < 1000 | > 10000 | > 10000 | < 100 | Cc1cccc2cc(C(C)Nc3ncnc4[nH]cnc34)n(-c3c(F)cccc3F)c(=O)c12 (stereo not shown) [Compound 216]
8 | < 100 | < 10000 | < 10000 | < 100 | Cc1ccccc1-n1c(Cn2nc(-c3nn[nH]n3)c3c(N)ncnc32)cc2cccc(C)c2c1=O [Compound 207]
9 | < 100 | > 10000 | < 10000 | < 100 | Cc1cccc2cc(Cn3nc(C#C[C@@H](C)O)c4c(N)ncnc43)n(-c3ccccc3C(C)C)c(=O)c12 [Compound 83]
10 | < 10000 | > 10000 | > 10000 | < 100 | Cc1cccc2cc(Cn3nc(I)c4c(N)ncnc43)n(C3CCC3)c(=O)c12 [Compound 105]
11 | < 1000 | < 10000 | < 10000 | < 1000 | CC(=O)Nc1nc2ccc(-c3nn(Cc4cc5cccc(C)c5c(=O)n4-c4ccccc4)c4ncnc(N)c34)cc2o1 [Compound 269]
12 | < 100 | < 10000 | < 10000 | < 100 | Cc1ccccc1-n1c(Cn2nc(-c3ccc4nc(N)[nH]c4c3)c3c(N)ncnc32)cc2cccc(C)c2c1=O [Compound 295]
13 | < 1000 | < 10000 | < 100 | < 100 | Cc1cccc2cc([C@H](C)Nc3nc(F)nc4[nH]cnc34)n(C3CC3)c(=O)c12 [Compound 279]
14 | > 10000 | > 10000 | > 10000 | > 10000 | Cc1cccc2cc([C@H](C)Nc3nc(N)ncc3C(N)=O)n(C3CC3)c(=O)c12 [Compound 282]
15 | < 100 | < 1000 | < 100 | < 100 | Cc1cccc2cc([C@H](C)Nc3ncnc4[nH]cc(C(N)=O)c34)n(-c3ccccc3)c(=O)c12 [Compound 288]

The next lines start with the compound.

Row | SMILES | IC50 (PI3K γ) [nM] | IC50 (PI3K α) [nM] | IC50 (PI3K β) [nM] | IC50 (PI3K δ) [nM]
16 | Cc1cccc2cc(Cn3nc(-c4cc(O)cc(F)c4)c4c(N)ncnc43)n(C3CC3)c(=O)c12 [Compound 101] | < 100 | < 1000 | < 100 | < 100
17 | Cc1cccc2cc(Cn3nc(-c4cnn(C)c4)c4c(N)ncnc43)n(-c3ccccc3F)c(=O)c12 [Compound 164] | < 10000 | > 10000 | > 10000 | < 10000
18 | Cc1cccc2cc(Cn3nc(C#N)c4c(N)ncnc43)n(-c3ccccc3F)c(=O)c12 [Compound 169] | > 10000 | > 10000 | > 10000 | < 100
19 | CCn1c(Cn2nc(-c3ccc4nc(NC(C)=O)sc4c3)c3c(N)ncnc32)cc2cccc(C)c2c1=O [Compound 176] | < 100 | < 100 | < 1000 | < 100
20 | Cc1cccc2cc([C@H](C)Nc3ncnc4[nH]cc(F)c34)n(-c3ccccc3)c(=O)c12 [Compound 254] | < 100 | < 10000 | < 100 | < 100
21 | Cc1cccc2cc([C@H](C)Nc3nc(Cl)ncc3Cl)n(-c3ccccc3)c(=O)c12 [Compound 248] | < 10000 | > 10000 | > 10000 | < 1000
22 | CC(=O)Nc1nc2ccc(-c3nn(Cc4cc5cccc(C)c5c(=O)n4-c4ccccc4)c4ncnc(N)c34)cc2s1 [Compound 177] | < 100 | < 1000 | < 10000 | < 100
23 | Cc1cccc2cc([C@H](C)Nc3nc(N)nc4[nH]cnc34)n(-c3ccccc3)c(=O)c12 [Compound 323] | < 100 | < 1000 | < 100 | < 100
24 | Cc1cccc2cc(Cn3nc(C#C[C@@H](C)O)c4c(N)ncnc43)n(-c3ccccc3O)c(=O)c12 [Compound 91] | < 10000 | > 10000 | > 10000 | < 100
25 | COc1ccccc1-n1c(Cn2nc(-c3cccc(O)c3)c3c(N)ncnc32)cc2cccc(C)c2c1=O [Compound 74] | < 100 | > 10000 | < 10000 | < 100
26 | COc1ccccc1-n1c(Cn2nc(I)c3c(N)ncnc32)cc2cccc(C)c2c1=O [Compound 70] | < 1000 | > 10000 | > 10000 | < 100
27 | Nc1ncnc2c1c(-c1cc(O)cc(F)c1)nn2Cc1cc2cccc(Cl)c2c(=O)n1C1CC1 [Compound 142] | < 100 | < 100 | < 100 | < 100
28 | Cc1cccc2cc(Cn3nc(-c4ccc5oc(N)nc5c4)c4c(N)ncnc43)n(C3CC3)c(=O)c12 [Compound 201] | < 100 | < 100 | < 1000 | < 100
29 | Cc1cccc2cc(Cn3nc(C4=CCOCC4)c4c(N)ncnc43)n(-c3ccccc3)c(=O)c12 [Compound 315] | > 10000 | > 10000 | > 10000 | > 10000
30 | CCC(Nc1ncnc2[nH]cnc12)c1cc2cccc(C)c2c(=O)n1-c1ccc(F)cc1 (stereo not shown) [Compound 223] | < 100 | < 10000 | < 10000 | < 100
31 | Cc1ccccc1-n1c(Cn2nc(-c3ccc(F)c(O)c3)c3c(N)ncnc32)cc2cccc(C)c2c1=O [Compound 12] | < 100 | > 10000 | < 10000 | < 100

Row | SMILES | IC50 (PI3K γ) [nM] | IC50 (PI3K α) [nM] | IC50 (PI3K β) [nM] | IC50 (PI3K δ) [nM]
32 | CCc1ccccc1-n1c(Cn2nc(C#C[C@@H](C)O)c3c(N)ncnc32)cc2cccc(C)c2c1=O [Compound 99] | < 1000 | > 10000 | < 10000 | < 100
33 | Cc1cccc2cc(Cn3nc(-c4cccc(O)c4)c4c(N)ncnc43)n(-c3ccccc3Cl)c(=O)c12 [Compound 96] | < 100 | > 10000 | < 10000 | < 100
34 | C[C@H](Nc1ncnc2[nH]cnc12)c1cc2cccc(Cl)c2c(=O)n1C1CC1 [Compound 270] | < 100 | < 1000 | < 100 | < 100
35 | Cc1cccc2cc(Cn3nc(/C=C4/SC(=O)NC4=O)c4c(N)ncnc43)n(-c3ccccc3F)c(=O)c12 [Compound 171] | < 100 | < 10000 | < 10000 | < 100
36 | Cc1ccccc1-n1c(C(C)Nc2ncnc3[nH]cnc23)cc2cccc(C)c2c1=O (stereo not shown) [Compound 191] | < 100 | > 10000 | < 10000 | < 100
37 | CC(=O)Nc1nc2cc(-c3nn(Cc4cc5cccc(C)c5c(=O)n4-c4ccccc4)c4ncnc(N)c34)ccc2o1 [Compound 253] | < 100 | < 10000 | < 100 | < 100
38 | Cc1cccc2cc(C(C)Nc3ncnc4[nH]cnc34)n(C(C)C)c(=O)c12 (stereo not shown) [Compound 209] | < 1000 | < 10000 | < 10000 | < 100
39 | Cc1cccc2cc([C@H](C)Nc3cc(N)nc(Cl)n3)n(-c3ccccc3)c(=O)c12 [Compound 285] | < 10000 | > 10000 | > 10000 | < 1000
40 | Cc1ccccc1-n1c(Cn2nc(-c3ccc4oc(N)nc4c3)c3c(N)ncnc32)cc2cccc(C)c2c1=O [Compound 151] | < 100 | < 1000 | < 10000 | < 100
41 | COc1ccccc1-n1c(Cn2nc(C#C[C@@H](C)O)c3c(N)ncnc32)cc2cccc(C)c2c1=O [Compound 80] | < 1000 | > 10000 | > 10000 | < 100
42 | C=Cc1nn(Cc2cc3cccc(C)c3c(=O)n2-c2ccccc2F)c2ncnc(N)c12 [Compound 179] | < 10000 | > 10000 | > 10000 | < 1000
43 | Cc1cccc2cc(Cn3nc(-c4cc(O)cc(F)c4)c4c(N)ncnc43)n(-c3ccccc3C(C)C)c(=O)c12 [Compound 95] | < 100 | < 1000 | < 1000 | < 100
44 | Cc1ccccc1-n1c(Cn2nc(CCC(N)=O)c3c(N)ncnc32)cc2cccc(C)c2c1=O [Compound 175] | < 10000 | > 10000 | > 10000 | < 1000
45 | Cc1cccc2cc(Cn3nc(-c4cnn(CCO)c4)c4c(N)ncnc43)n(-c3ccccc3F)c(=O)c12 [Compound 162] | < 1000 | > 10000 | > 10000 | < 100
46 | Cc1ccccc1-n1c(Cn2nc(-c3ccc(F)cc3)c3c(N)ncnc32)cc2cccc(C)c2c1=O [Compound 27] | < 1000 | > 10000 | > 10000 | < 10000
